Our source for the IC50 values is patent publication US7700593B2, “Imidazo- and triazolo-pyridine compounds and methods of use thereof” (Amgen Inc., priority 2006, dated 2010).

For assay [1], the target named is p38α (Homo sapiens, UniProt Q16539). The assay can be described thus: p38 in-vitro HTRF enzyme assay. The class given is biochemical. As to conditions: IC50 value ranges. A digest of the protocol:
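Activated recombinant human p38α with ATP and 100 nM GST-ATF2-Avitag, 1 h at RT in Tris pH 7.5/MgCl2 buffer; compound 10-point 3-fold series from about 1 μM final. HTRF 665/620 nm ratio; IC50 from 4-parameter fit, Ki via Cheng-Prusoff with experimental ATP Km.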
(In general: In TR-FRET formats the signal depends on donor and acceptor labels being close together.)

Assay [2] concerns THP1 cells. The assay can be described thus: Lipopolysaccharide-activated THP1 cell TNF production assay. The class given is cell-based, human. The following applies: Homo sapiens, THP-1; LPS-induced TNF-α production in THP1 cells. A digest of the protocol:
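THP1 cells at 1E6/mL were stimulated with LPS (1 μg/mL prepared stock) alongside 3-fold serially diluted compound for 3 h at 37 °C. Secreted TNF-α was quantified by electrochemiluminescence sandwich immunoassay. Percent of DMSO control was fitted to a 4-parameter logistic equation.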

Assay [3] deals with monocytes. Put plainly: Lipopolysaccharide-activated monocyte TNF production assay (LPS induced TNF release). In kind it is cell-based, human. As to conditions: Homo sapiens, Monocyte; LPS induced TNF release from monocytes; read-out: LPS induced TNFa. A digest of the protocol: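 Adherent monocytes from human PBMCs were pretreated with compound 60 min, then stimulated with E. coli LPS (30 ng/mL stock added) for 4 h at 37 °C. Supernatant TNF-α measured by sandwich ELISA; concentration giving 50% TNF reduction derived by polynomial fit.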

p38α, sequence (Q16539 whole entry): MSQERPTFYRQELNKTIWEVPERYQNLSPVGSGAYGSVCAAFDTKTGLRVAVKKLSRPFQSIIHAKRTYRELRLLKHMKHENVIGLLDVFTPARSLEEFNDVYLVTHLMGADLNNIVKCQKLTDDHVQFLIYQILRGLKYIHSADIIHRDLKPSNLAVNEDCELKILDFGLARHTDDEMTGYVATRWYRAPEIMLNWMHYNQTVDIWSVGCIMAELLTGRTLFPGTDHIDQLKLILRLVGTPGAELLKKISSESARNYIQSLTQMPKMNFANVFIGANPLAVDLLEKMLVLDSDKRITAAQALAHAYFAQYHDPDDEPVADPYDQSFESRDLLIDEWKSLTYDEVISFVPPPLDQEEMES

`Cc1ccc(C(=O)Nc2ccnn2C)cc1-c1ccn2c(-c3ccccc3Cl)nnc2c1` [Example 3, 3-(3-(2-chlorophenyl)[1,2,4]triazolo[4,3-a]pyridin-7-yl)-4-methyl-N-(1-methyl-1H-pyrazol-5-yl)benzamide]: the IC50 in assay [1], in assay [2] and in assay [3] was less than 25 nM each time.

Regarding `Cc1ccc(C(=O)Nc2ccnn2C)cc1-c1cc2nnc(-c3ccccc3Cl)n2cc1C` [Example 36, 3-(3-(2-chlorophenyl)-6-methyl[1,2,4]triazolo[4,3-a]pyridin-7-yl)-4-methyl-N-(1-methyl-1H-pyrazol-5-yl)benzamide], the IC50 was less than 25 nM in assay [1], less than 25 nM in assay [2] and 25 to 100 nM in assay [3].

As for `Cc1ccc(C(=O)NC2CC2)cc1-c1ccn2c(-c3sccc3C)nnc2c1` [Example 53, N-cyclopropyl-4-methyl-3-(3-(3-methyl-2-thienyl)[1,2,4]triazolo[4,3-a]pyridin-7-yl)benzamide], the IC50 in assay [1] is less than 25 nM; in assay [2], 25 to 100 nM; in assay [3] it was 25 to 100 nM.

Consider `Cc1ccc(C(=O)NC2CC2)cc1-c1ccn2c(-c3cccnc3)nnc2c1` [Example 29, N-cyclopropyl-4-methyl-3-(3-(3-pyridinyl)[1,2,4]triazolo[4,3-a]pyridin-7-yl)benzamide], for which the IC50 in assay [1], in assay [2] and in assay [3] was 100 to 250 nM throughout.

For the compound `Cc1ccc(C(=O)Nc2ccnn2C)cc1-c1ccn2c(-c3sccc3C)nnc2c1` [Example 54, 4-methyl-N-(1-methyl-1H-pyrazol-5-yl)-3-(3-(3-methyl-2-thienyl)[1,2,4]triazolo[4,3-a]pyridin-7-yl)benzamide], the IC50 is less than 25 nM in assay [1], less than 25 nM in assay [2] and 25 to 100 nM in assay [3].

In the case of `Cc1ccc(C(N)=O)cc1-c1ccn2c(N)nnc2c1` [Example 24, 3-(3-amino[1,2,4]triazolo[4,3-a]pyridin-7-yl)-4-methylbenzamide], the IC50 in assay [1], in assay [2] and in assay [3] was 1000 to 5000 nM in each case.

Turning to `Cc1ccc(C(=O)NC2CC2)cc1-c1ccn2c(C3CCOCC3)nnc2c1` [Example 97, N-cyclopropyl-4-methyl-3-(3-(tetrahydro-2H-pyran-4-yl)[1,2,4]triazolo[4,3-a]pyridin-7-yl)benzamide], the figures for the IC50 in assay [1], in assay [2] and in assay [3] were less than 25 nM, 25 to 100 nM and 100 to 250 nM, respectively.

On to `Cc1ccc(C(=O)NC2CC2)cc1-c1ccn2c(Nc3ccccc3)nnc2c1` [Example 66, N-cyclopropyl-4-methyl-3-(3-(phenylamino)[1,2,4]triazolo[4,3-a]pyridin-7-yl)benzamide], for which the IC50 in assay [1] is less than 25 nM; in assay [2], 250 to 1000 nM; in assay [3], 100 to 250 nM.

Take `Cc1ccc(C(=O)NC2CC2)cc1-c1ccn2c(-c3ccc(F)cc3C)ncc2c1` [Example 22, N-cyclopropyl-3-(3-(4-fluoro-2-methylphenyl)imidazo[1,5-a]pyridin-7-yl)-4-methylbenzamide]: the IC50 in assay [1] is less than 25 nM; in assay [2], 25 to 100 nM; in assay [3], 25 to 100 nM.

Turning to `Cc1ccc(C(=O)Nc2ccnn2C)cc1-c1ccn2c(-c3ccc(F)cc3Cl)nnc2c1` [Example 45, 3-(3-(2-chloro-4-fluorophenyl)[1,2,4]triazolo[4,3-a]pyridin-7-yl)-4-methyl-N-(1-methyl-1H-pyrazol-5-yl)benzamide], the IC50 in assay [1] is less than 25 nM; in assay [2] it was less than 25 nM; in assay [3], 100 to 250 nM.

As to `Cc1ccc(C(=O)Nc2ccnn2C)cc1-c1ccn2c(-c3cc(F)ccc3Cl)nnc2c1` [Example 47, 3-(3-(2-chloro-5-fluorophenyl)[1,2,4]triazolo[4,3-a]pyridin-7-yl)-4-methyl-N-(1-methyl-1H-pyrazol-5-yl)benzamide], the values for the IC50 in assay [1], in assay [2] and in assay [3] were less than 25 nM, less than 25 nM and 25 to 100 nM, respectively.

`Cc1c(F)cc(C(=O)NC2CC2)cc1-c1ccn2c(-c3ccccc3Cl)nnc2c1` [Example 51, 3-(3-(2-chlorophenyl)[1,2,4]triazolo[4,3-a]pyridin-7-yl)-N-cyclopropyl-5-fluoro-4-methylbenzamide]: the IC50 in assay [1] is less than 25 nM; in assay [2] it was less than 25 nM; in assay [3] it was 25 to 100 nM.

Consider `Cc1ccc(C(=O)NC2CC2)cc1-c1ccn2c(-c3c(F)cccc3C(F)(F)F)nnc2c1` [Example 69, N-cyclopropyl-3-(3-(2-fluoro-6-(trifluoromethyl)phenyl)[1,2,4]triazolo[4,3-a]pyridin-7-yl)-4-methylbenzamide], for which the IC50 is less than 25 nM in assay [1], less than 25 nM in assay [2] and 25 to 100 nM in assay [3].

`Cc1ccc(C(=O)NC2(C)CC2)cc1-c1ccn2c(-c3ccc(S(C)(=O)=O)cc3)nnc2c1` [Example 13, 4-methyl-N-(1-methylcyclopropyl)-3-(3-(4-(methylsulfonyl)phenyl)[1,2,4]triazolo[4,3-a]pyridin-7-yl)benzamide]: the IC50 was in the range of 25 to 100 nM in assay [1], 250 to 1000 nM in assay [2] and 250 to 1000 nM in assay [3].

As for `Cc1ccc(C(=O)Nc2ccnn2C)cc1-c1ccn2c(-c3cc(F)cc(F)c3)ncc2c1` [Example 8, 3-(3-(3,5-difluorophenyl)imidazo[1,5-a]pyridin-7-yl)-4-methyl-N-(1-methyl-1H-pyrazol-5-yl)benzamide], the values for the IC50 in assay [1], in assay [2] and in assay [3] were less than 25 nM, 100 to 250 nM and 1000 to 5000 nM, respectively.

Consider `CNC(=O)c1ccc(C)c(-c2ccn3c(-c4ccccc4Cl)nnc3c2)c1` [Example 40, 3-(3-(2-chlorophenyl)[1,2,4]triazolo[4,3-a]pyridin-7-yl)-N,4-dimethylbenzamide], for which the figures for the IC50 in assay [1], in assay [2] and in assay [3] were 25 to 100 nM, 25 to 100 nM and 100 to 250 nM, respectively.

In the case of `Cc1ccc(C(=O)NC2CC2)cc1-c1ccn2c(N3CCCCC3)nnc2c1` [Example 99, N-cyclopropyl-4-methyl-3-(3-(1-piperidinyl)[1,2,4]triazolo[4,3-a]pyridin-7-yl)benzamide], the IC50 in assay [1] was less than 25 nM; in assay [2] it was 25 to 100 nM; in assay [3], 250 to 1000 nM.

Consider `Cc1cc(F)c(C(=O)NC2CC2)cc1-c1ccn2c(-c3ccccc3Cl)nnc2c1` [Example 70, 5-(3-(2-chlorophenyl)[1,2,4]triazolo[4,3-a]pyridin-7-yl)-N-cyclopropyl-2-fluoro-4-methylbenzamide], for which the IC50 in assay [1] is less than 25 nM; in assay [2] it was 25 to 100 nM; in assay [3], 100 to 250 nM.

For the compound `Cc1ccc(C(=O)NC2CC2)cc1-c1ccn2c(CC(F)(F)F)nnc2c1` [Example 31, N-cyclopropyl-4-methyl-3-(3-(2,2,2-trifluoroethyl)[1,2,4]triazolo[4,3-a]pyridin-7-yl)benzamide], the IC50 lay in the range of 25 to 100 nM in assay [1], 100 to 250 nM in assay [2] and 250 to 1000 nM in assay [3].

Consider `Cc1c(F)cc(C(=O)NC2CC2)cc1-c1ccn2c(-c3c(F)cccc3Cl)nnc2c1` [Example 56, 3-(3-(2-chloro-6-fluorophenyl)[1,2,4]triazolo[4,3-a]pyridin-7-yl)-N-cyclopropyl-5-fluoro-4-methylbenzamide], for which the IC50 in assay [1], in assay [2] and in assay [3] was less than 25 nM in each case.

On to `Cc1ncoc1-c1nnc2cc(-c3cc(C(=O)NC4CC4)cc(F)c3C)ccn12` [Example 60, N-cyclopropyl-3-fluoro-4-methyl-5-(3-(4-methyl-1,3-oxazol-5-yl)[1,2,4]triazolo[4,3-a]pyridin-7-yl)benzamide], for which the IC50 in assay [1] was less than 25 nM; in assay [2] it was 100 to 250 nM; in assay [3], 100 to 250 nM.

As to `Cc1ccc(C(=O)Nc2ccnn2C)cc1-c1ccn2c(C(C)C)nnc2c1` [Example 28, 4-methyl-3-(3-(1-methylethyl)[1,2,4]triazolo[4,3-a]pyridin-7-yl)-N-(1-methyl-1H-pyrazol-5-yl)benzamide], the values for the IC50 in assay [1], in assay [2] and in assay [3] were less than 25 nM, 100 to 250 nM and 100 to 250 nM, respectively.

Consider `Cc1ccc(C(=O)Nc2ccon2)cc1-c1ccn2c(-c3c(F)cccc3F)nnc2c1` [Example 106, 3-(3-(2,6-difluorophenyl)[1,2,4]triazolo[4,3-a]pyridin-7-yl)-N-3-isoxazolyl-4-methylbenzamide], for which the IC50 in assay [1], in assay [2] and in assay [3] was less than 25 nM each time.

In the case of `Cc1ccc(C(=O)NC2(C)CC2)cc1-c1ccn2c(-c3ccccc3Cl)nnc2c1` [Example 11, 3-(3-(2-chlorophenyl)[1,2,4]triazolo[4,3-a]pyridin-7-yl)-4-methyl-N-(1-methylcyclopropyl)benzamide], the results for the IC50 in assay [1], in assay [2] and in assay [3] were less than 25 nM, 25 to 100 nM and 25 to 100 nM, respectively.

With `Cc1cccc(F)c1-c1nnc2cc(-c3cc(C(=O)NC4CC4)cc(F)c3C)ccn12` [Example 83, N-cyclopropyl-3-fluoro-5-(3-(2-fluoro-6-methylphenyl)[1,2,4]triazolo[4,3-a]pyridin-7-yl)-4-methylbenzamide], the IC50 in assay [1], in assay [2] and in assay [3] was less than 25 nM in each case.

For the compound `Cc1ccc(C(=O)NC2CC2)cc1-c1ccn2c(-c3ccccc3F)nnc2c1` [Example 2, N-cyclopropyl-3-(3-(2-fluorophenyl)[1,2,4]triazolo[4,3-a]pyridin-7-yl)-4-methylbenzamide], the values for the IC50 in assay [1], in assay [2] and in assay [3] were less than 25 nM, 25 to 100 nM and 25 to 100 nM, respectively.
